Article PMC4629130, “Human Odorant Reception in the Common Bed Bug, Cimex lectularius” (Scientific Reports, 2015)

Key:
ClOr1/Orco = biological target: T1, ClOr1/Orco (Cimex lectularius, UniProt A0A8I6SE58); test: two-electrode voltage clamp, Xenopus oocytes; type: cell-based
T1 construct: entire coding regions of ClOr1 and ClOrco in pT7Ts, cRNAs co-injected into Xenopus oocytes; heteromeric receptor channel; with Odorant receptor coreceptor

ClOr2/Orco = biological target: T2, ClOr2/Orco (Cimex lectularius, UniProt A0A8I6SBL2); test: two-electrode voltage clamp, Xenopus oocytes; type: cell-based
T2 construct: entire coding regions of ClOr2 and ClOrco in pT7Ts, cRNAs co-injected into Xenopus oocytes; heteromeric receptor channel; clusters with Rhodnius RpOr105; with Odorant receptor coreceptor
T2 sequence (A0A8I6SBL2 1-382): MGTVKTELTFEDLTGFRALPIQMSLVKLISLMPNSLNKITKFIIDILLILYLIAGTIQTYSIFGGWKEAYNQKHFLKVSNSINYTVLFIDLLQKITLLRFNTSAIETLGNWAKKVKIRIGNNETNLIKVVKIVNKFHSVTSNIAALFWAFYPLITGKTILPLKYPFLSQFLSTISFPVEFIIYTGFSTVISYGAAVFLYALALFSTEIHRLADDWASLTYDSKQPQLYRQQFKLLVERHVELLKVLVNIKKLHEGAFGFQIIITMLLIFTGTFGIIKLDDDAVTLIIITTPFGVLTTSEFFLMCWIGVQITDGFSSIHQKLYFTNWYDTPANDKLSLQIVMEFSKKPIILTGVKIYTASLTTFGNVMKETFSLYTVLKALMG
T2 sequence (A0A0A0U7J0 1-451 partner): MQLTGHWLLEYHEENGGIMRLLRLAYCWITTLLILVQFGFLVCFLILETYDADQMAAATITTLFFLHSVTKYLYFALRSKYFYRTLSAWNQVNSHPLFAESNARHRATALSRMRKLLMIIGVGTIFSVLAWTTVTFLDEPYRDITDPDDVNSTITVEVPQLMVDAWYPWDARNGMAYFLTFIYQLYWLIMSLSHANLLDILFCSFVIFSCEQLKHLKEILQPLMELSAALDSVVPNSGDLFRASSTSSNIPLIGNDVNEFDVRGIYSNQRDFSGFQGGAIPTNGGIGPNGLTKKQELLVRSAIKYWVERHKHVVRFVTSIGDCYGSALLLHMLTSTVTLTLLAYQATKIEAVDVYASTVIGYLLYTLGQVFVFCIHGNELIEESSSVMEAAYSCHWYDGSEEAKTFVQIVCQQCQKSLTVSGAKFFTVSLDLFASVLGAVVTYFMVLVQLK

T1 sequence (A0A8I6SE58 1-379): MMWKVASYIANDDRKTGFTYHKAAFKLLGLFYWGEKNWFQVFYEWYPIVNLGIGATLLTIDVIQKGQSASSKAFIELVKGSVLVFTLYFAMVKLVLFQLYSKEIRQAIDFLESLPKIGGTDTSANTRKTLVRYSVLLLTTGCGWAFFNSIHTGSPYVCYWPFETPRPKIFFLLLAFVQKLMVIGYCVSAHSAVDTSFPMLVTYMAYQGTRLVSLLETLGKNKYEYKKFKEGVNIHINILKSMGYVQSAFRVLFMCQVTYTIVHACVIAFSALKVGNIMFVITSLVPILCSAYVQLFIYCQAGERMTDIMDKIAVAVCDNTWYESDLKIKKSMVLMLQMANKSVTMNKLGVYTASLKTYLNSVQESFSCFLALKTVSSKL
T1 sequence (A0A0A0U7J0 1-451 partner): as the sequence (A0A0A0U7J0 1-451 partner) above

CCCCCCCC=O [octanal]
EC50 (ClOr1/Orco): 3.4 µM

CCCCCCCCCC=O [decanal]
EC50 (ClOr2/Orco): 6.42 µM

CCCCCCCCC=O [nonanal]
EC50 (ClOr1/Orco): 0.519 µM
